Source: patent US20220402948A1, “EGFR INHIBITOR, COMPOSITION AND PREPARATION METHOD THEREFOR” (BETTA PHARMACEUTICALS CO., LTD., priority 2019, published 2022)
Read-outs that look alike come from different tables or passages of the source.

Key:
[1] = target: IGF1R (Homo sapiens, UniProt P08069); experiment: IGF1R kinase test (mobility variation analysis, Caliper EZ Reader); type: biochemical; conditions: kinase enzymatic activity, Table 1; read-out: EGFR IGF1R IC50
Experimental: (§1) Mobility variation analysis was performed to determine the affinity of the compound for EGFRΔ19del/T790M/C797S, EGFR WT and IGF1R. The enzymatic reaction scheme is as follows:
(§2) 1. Prepare 1*kinase buffer as follows.
2. Preparation of compound concentration gradient: The test compound was tested with an initial concentration of 3000 nM (300 nM for some triple mutations and 100 nM for others), diluted in a 384 source plate (96-well plate for comparative compound 1 and compounds 1-38) to a 100% DMSO solution with 100-fold final concentration, and the compound is 3-fold diluted with Precision to 10 concentrations. A dispenser Echo 550 was used to transfer 250 nL 100-fold final concentration of the compound to the target plate OptiPlate-384F.
3. Prepare 2.5-fold final concentration (5-fold for comparative compound 1 and compounds 1-38) of kinase solution with 1×Kinase buffer. Following steps should also be carried out for comparative compound 1 and compounds 1-38: Add each prepared intermediate dilution compounds to the compound wells of 384-well plate respectively, and test the repeated wells of each concentration; add 5% DMSO of 5 plates into the negative control well and the positive control well respectively. Prepare 2.5-fold final concentration of kinase solution with 1×Kinase buffer.
(§3) 4. Add 10 μL of 2.5-fold final concentration of kinase solution to the compound well and the positive control well; add 10 μL of 1×Kinase buffer to the negative control well.
(§4) 5. Centrifuge at 1000 rpm for 30 s, shake the reaction plate for well mixing, and then incubate at room temperature for 10 minutes.
(§5) 6. Prepare a mixture of ATP and Kinase substrate at 5/3-fold final concentration with 1×Kinase buffer.
7. Add 15 μL mixture of 5/3-fold (2.5-fold for comparative compound 1 and compounds 1-38) final concentration of ATP and substrate to start reaction.
(§6) 8. Centrifuge the 384-well plate at 1000 rpm for 30 s, shake it well and then incubate it at room temperature for corresponding time.
(§7) 9. Add 30 μL of stop detection solution to stop the kinase reaction, centrifuge at 1000 rpm for 30 s, and shake it well.
(§8) 10. Read conversion rate with Caliper EZ Reader.
(§9) % Inhibition=((Conversion%_max−Conversion%_sample)/(Conversion%_max−Conversion%_min))*100
(§10) Wherein: Conversion%_sample is the sample conversion rate reading; Conversion%_min: Mean value of negative control wells, representing the conversion rate reading of wells without enzymatic activity; Conversion%_max: Mean value of positive control wells, representing the conversion rate reading of wells without compound inhibition.
(§11) The dose-effect curve was fitted with concentration log value as X-axis and percentage inhibition rate as Y-axis. GraphPad Prism 5 analysis software was used for fitting Log (inhibitor) vs. response—Variable slope with the dose-effect curve to obtain IC50 value of enzymatic activity for each compound.
(§12) The calculation formula is as Y-Bottom+(Top-Bottom)/(1+10^((Log IC50−X)*HillSlope)).

[2] = target: Ba/F3 cells with EGFR Δ19del/T790M/C797S mutation gene stably overexpressed (Homo sapiens, UniProt P00533, T790M/C797S, cells depend on it, form not given); experiment: Ba/F3-Δ19del/T790M/C797S cell proliferation assay (CellTiter Glo, 72 hours); type: cell-based; conditions: Table 2, read-out: EGFR Δ19del/T790M/C797S IC50
Experimental: (§13) Cell line: Ba/F3 cells with EGFR Δ19del/T790M/C797S mutation gene stably overexpressed named Ba/F3-Δ119del/T90M/C797S, and A431 and Ba/F3-EGFR wild-type cell line.
(§14) a) Centrifuge the growth cells in logarithmic phase at 1000 rpm for 5 minutes, resuspend the cells in culture medium, and then count the cells;
(§15) b) Inoculate the cells into a 96-well cell culture plate with a density of 2000 cells/well;
(§16) b) Incubate cells in an incubator for another 72 hours.
(§17) a) Take out the 96-well cell culture plate and add 50 μl CTG reagent (CellTiter Glo kit, promega, Cat #G7573);
(§18) b) Shake the plate for 2 minutes and let cool at room temperature for 10 minutes;
(§19) c) Read luminous signal value with PerkinElmer reader,
(§20) Analysis of Experimental Data
(§21) The data were analyzed by GraphPad Prism 6.0 software to obtain the fitting curve of compound activity.
(§22) Y=Min+(Max−Min)/(1+10^((Log IC50−X)*slope));
(§23) X: Logarithm of compound concentration; Y: luminous signal.

[3] = target: EGFR WT (Homo sapiens, UniProt P00533); experiment: EGFR WT kinase test (mobility variation analysis, Caliper EZ Reader); type: biochemical; conditions: kinase enzymatic activity, Table 1
Experimental: as §1, §2
(§24) 3. […] Prepare 2.5-fold final concentration of kinase solution with 1×Kinase buffer.
as §3, §4, §5, §6, §7, §8, §9, §10, §11, §12

[4] = system: A431; experiment: A431 cell proliferation assay (CellTiter Glo, 72 hours); type: cell-based; conditions: cell proliferation, A431, 72 hours, Table 2, read-out: A431 IC50
Experimental: as §13
RPMI 1640 and 10% FBS and 1% PS; DMEM and 10% FBS and 1% PS.
a) Dilute the test compound (20 mM stock solution) to 10 mM with 100% DMSO as the starting concentration, and then serially dilute 3 times with a “9+0” concentration in 96-well dilution plate (Cat #P-05525, Labcyte);
b) Dilute compound solution thereof to 1:100 (1:20 for comparative compound 1 and compounds 1-38) in medium to prepare 10-fold working solution;
as §14, §15
a) Compounds prepared at step 2 were added to cell plate with 15 μl per well, the final concentrations were 1000, 333, 111.1, 37, 12.3, 4.1, 1.4, 0.5, 0.2 and 0 nM, and the final concentration of DMSO was 0.1%. The blank control well was a culture medium (0.1% DMSO) (the blank control well of comparative compound 1 and compounds 1-38 was a culture medium (0.5% DMSO).
as §16, §17, §18, §19, §20, §21
Fitting compound IC50 from nonlinear regression equation:
as §22, §23

[5] = target: EGFRΔ19del/T790M/C797S (Homo sapiens, UniProt P00533, T790M/C797S, form not given); experiment: EGFR Δ19del/T790M/C797S kinase test (mobility variation analysis, Caliper EZ Reader); type: biochemical; conditions: kinase enzymatic activity, Table 1
Experimental: as §1, §2, §24, §3, §4, §5, §6, §7, §8, §9, §10, §11, §12

Sequence of IGF1R (P08069 31-1367, species assumed): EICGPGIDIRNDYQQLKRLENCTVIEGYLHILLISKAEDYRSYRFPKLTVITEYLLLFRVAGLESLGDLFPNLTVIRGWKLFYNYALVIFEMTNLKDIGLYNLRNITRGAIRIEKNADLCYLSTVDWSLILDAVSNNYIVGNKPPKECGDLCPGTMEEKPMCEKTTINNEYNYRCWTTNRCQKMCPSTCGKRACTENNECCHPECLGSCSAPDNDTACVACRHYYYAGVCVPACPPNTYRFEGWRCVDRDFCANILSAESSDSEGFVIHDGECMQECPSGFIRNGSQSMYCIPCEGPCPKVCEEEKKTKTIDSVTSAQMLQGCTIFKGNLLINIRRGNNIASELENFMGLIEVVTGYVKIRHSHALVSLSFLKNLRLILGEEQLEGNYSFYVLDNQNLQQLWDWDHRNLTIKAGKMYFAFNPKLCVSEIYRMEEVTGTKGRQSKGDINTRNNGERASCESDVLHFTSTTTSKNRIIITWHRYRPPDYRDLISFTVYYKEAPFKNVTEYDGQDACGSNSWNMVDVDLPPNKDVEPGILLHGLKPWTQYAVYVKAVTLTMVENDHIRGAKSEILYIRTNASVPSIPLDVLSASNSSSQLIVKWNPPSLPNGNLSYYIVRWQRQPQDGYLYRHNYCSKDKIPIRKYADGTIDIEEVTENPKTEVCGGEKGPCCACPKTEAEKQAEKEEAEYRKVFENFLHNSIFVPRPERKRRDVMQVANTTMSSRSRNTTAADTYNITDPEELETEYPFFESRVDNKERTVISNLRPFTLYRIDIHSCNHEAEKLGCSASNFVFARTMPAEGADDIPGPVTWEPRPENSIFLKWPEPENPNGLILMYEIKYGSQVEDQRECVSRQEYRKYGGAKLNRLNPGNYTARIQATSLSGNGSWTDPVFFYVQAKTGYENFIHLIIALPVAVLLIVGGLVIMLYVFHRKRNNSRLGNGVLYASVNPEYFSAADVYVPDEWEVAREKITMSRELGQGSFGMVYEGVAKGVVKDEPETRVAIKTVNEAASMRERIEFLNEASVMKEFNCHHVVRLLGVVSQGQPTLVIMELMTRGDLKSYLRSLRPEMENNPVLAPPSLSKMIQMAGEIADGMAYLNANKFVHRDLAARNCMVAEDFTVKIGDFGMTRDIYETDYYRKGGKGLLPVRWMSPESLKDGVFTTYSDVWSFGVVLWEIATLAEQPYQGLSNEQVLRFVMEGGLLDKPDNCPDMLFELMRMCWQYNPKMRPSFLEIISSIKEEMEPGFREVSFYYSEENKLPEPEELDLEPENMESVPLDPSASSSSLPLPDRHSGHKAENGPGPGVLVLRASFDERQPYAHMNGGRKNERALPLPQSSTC

| IC50 [1] [nM] | GI50 [2] [nM] | IC50 [3] [nM] | IC50 ([4]; Homo sapiens, A-431, 72 h) [nM] | IC50 [5] [nM] | IC50 [4] [nM] | Compound |
| --- | --- | --- | --- | --- | --- | --- |
| 263 | 17.4 | 28.8 | > 10000 | 0.3 | – | CCc1cc(Nc2ncc(Br)c(Nc3ccc(-c4ccc(N(C)C)nn4)cc3P(C)(C)=O)n2)c(OC)cc1N1CCC(N2CCN(C)CC2)CC1 [Compound 37, (2-((5-Bromo-2-((5-ethyl-2-methoxy-4-(4-(4-methylpiperazin-1-yl)piperidin-1-yl)phenyl)amino)pyrimidin-4-yl)amino)-5-(6-(dimethylamino)pyridazin-3-yl)phenyl)dimethylphosphine oxide] |
| 363 | 30 | 20.1 | 2200 | 0.7 | – | CCc1cc(Nc2ncc(Cl)c(Nc3ccc(-c4ccc5ocnc5c4)cc3P(C)(C)=O)n2)c(OC)cc1N1CCC(N2CCN(C)CC2)CC1 [Compound 17, (5-(Benzo[d]oxazol-5-yl)-2-((5-chloro-2-((5-ethyl-2-methoxy-4-(4-(4-methylpiperazin-1-yl)piperidin-1-yl)phenyl)amino)pyrimidin-4-yl)amino)phenyl)dimethylphosphine oxide] |
| 64 | 11.2 | 11.1 | 711 | 0.3 | – | CCc1cc(Nc2ncc(Br)c(Nc3ccc(-c4cnsc4)cc3P(C)(C)=O)n2)c(OC)cc1N1CCC(N2CCN(C)CC2)CC1 [Compound 38, (2-((5-Bromo-2-((5-ethyl-2-methoxy-4-(4-(4-methylpiperazin-1-yl)piperidin-1-yl)phenyl)amino)pyrimidin-4-yl)amino)-5-(isothiazol-4-yl)phenyl)dimethylphosphine oxide] |
| 126 | 13.2 | 20.3 | 1270 | 0.7 | – | CCc1cc(Nc2ncc(Cl)c(Nc3ccc(-c4ncc(F)cn4)cc3P(C)(C)=O)n2)c(OC)cc1N1CCC(N2CCN(C)CC2)CC1 [Compound 18, (2-((5-Chloro-2-((5-ethyl-2-methoxy-4-(4-(4-methylpiperazin-1-yl)piperidin-1-yl)phenyl)amino)pyrimidin-4-yl)amino)-5-(5-fluoropyrimidin-2-yl)phenyl)dimethylphosphine oxide] |
| 149 | 14.5 | 13.9 | 769 | 0.4 | – | CCc1cc(Nc2ncc(Cl)c(Nc3ccc(-c4cscn4)cc3P(C)(C)=O)n2)c(OC)cc1N1CCC(N2CCN(C)CC2)CC1 [Compound 14, (2-((5-Chloro-2-((5-ethyl-2-methoxy-4-(4-(4-methylpiperazin-1-yl)piperidin-1-yl)phenyl)amino)pyrimidin-4-yl)amino)-5-(thiazol-4-yl)phenyl)dimethylphosphine oxide] |
| 144 | 29.6 | 22 | 864 | 0.6 | – | CCc1cc(Nc2ncc(Cl)c(Nc3ccc(-c4nccc(OC)n4)cc3P(C)(C)=O)n2)c(OC)cc1N1CCC(N2CCN(C)CC2)CC1 [Compound 19, (2-((5-Chloro-2-((5-ethyl-2-methoxy-4-(4-(4-methylpiperazin-1-yl)piperidin-1-yl)phenyl)amino)pyrimidin-4-yl)amino)-5-(4-methoxypyrimidin-2-yl)phenyl)dimethylphosphine oxide] |
| 330 | 47.3 | 43.1 | > 10000 | 0.8 | – | CCc1cc(Nc2ncc(Br)c(Nc3ccc(-c4cn(C)nc4C#N)cc3P(C)(C)=O)n2)c(OC)cc1N1CCC(N2CCN(C)CC2)CC1 [Compound 64, 4-(4-((5-Bromo-2-((5-ethyl-2-methoxy-4-(4-(4-methylpiperazin-1-yl)piperidin-1-yl)phenyl)amino]pyrimidin-4-yl)amino)-3-(dimethylphosphoryl)phenyl)-1-methyl-1H-pyrazole-3-carbonitrile] |
| 268 | 19.1 | 32 | – | 0.2 | 1510 | (2-((5-Bromo-2-((5-ethyl-2-methoxy-4-(4-(4-methylpiperazin-1-yl)piperidin-1-yl)phenyl)amino]amino]pyrimidin-4-yl)amino)-5-(4-methoxy-1H-pyrazol-1-yl)phenyl)dimethylphosphine oxide [Compound 50] |
| 117 | 18.7 | 12.5 | > 10000 | 0.4 | – | CCc1cc(Nc2ncc(Br)c(Nc3ccc(-c4cccc(C#N)c4)cc3P(C)(C)=O)n2)c(OC)cc1N1CCC(N2CCN(C)CC2)CC1 [Compound 5, 4′-((5-Bromo-2-((5-ethyl-2-methoxy-4-(4-(4-methylpiperazin-1-yl)piperidin-1-yl)phenyl)amino)pyrimidin-4-yl)amino)-3′-(dimethylphosphineoxide)-[1,1′-diphenyl]-3-carbonitrile] |
| 310 | 10.7 | 13 | 989 | 1.1 | – | CCc1cc(Nc2ncc(Br)c(Nc3ccc(-c4nccs4)cc3P(C)(C)=O)n2)c(OC)cc1N1CCC(N2CCN(C)CC2)CC1 [Compound 12, (2-((5-Bromo-2-((5-ethyl-2-methoxy-4-(4-(4-methylpiperazin-1-yl)piperidin-1-yl)phenyl)amino)pyrimidin-4-yl)amino)-5-(thiazol-2-yl)phenyl)dimethylphosphine oxide] |
| 180 | 20.1 | 29.4 | 1430 | 0.3 | – | CCc1cc(Nc2ncc(Br)c(Nc3ccc(-c4ccc(C)cn4)cc3P(C)(C)=O)n2)c(OC)cc1N1CCC(N2CCN(C)CC2)CC1 [Compound 83, (2-((5-Bromo-2-((5-ethyl-2-methoxy-4-(4-(4-methylpiperazin-1-yl)piperidin-1-yl)phenyl)amino)pyrimidin-4-yl)amino)-5-(5-methylpyridin-2-yl)phenyl)dimethylphosphine oxide] |
| 219 | 37.4 | 26.7 | 1610 | 0.7 | – | CCc1cc(Nc2ncc(Br)c(Nc3ccc(-n4cc(C)cn4)cc3P(C)(C)=O)n2)c(OC)cc1N1CCC(N2CCN(C)CC2)CC1 [Compound 86, (2-((5-Bromo-2-((5-ethyl-2-methoxy-4-(4-(4-methylpiperazin-1-yl)piperidin-1-yl)phenyl)amino)pyrimidin-4-yl)amino)-5-(4-methyl-1H-pyrazol-1-yl)phenyl)dimethylphosphine oxide] |
